Source: US20080293646A1, “MACROLIDES” (Pfizer Inc, priority 2007, published 2008)
In brackets after ≈: the same amount, converted by molar mass. Where a name gives a salt, the structure may show the parent alone. Read-outs that look alike come from different tables or passages of the source.

How the values were obtained:
[1] = tested on: S. pneumoniae emB/mefA; assay: MIC, microtiter broth dilution, S. pneumoniae ermB/mefA isolates; type: cell-based, Streptococcus pneumoniae; conditions: for MIC50 / MIC90: Streptococcus pneumoniae
[2] = tested on: S. pneumoniae mefA; assay: MIC, microtiter broth dilution, S. pneumoniae mefA isolates; type: cell-based, Streptococcus pneumoniae; conditions: for MIC50 / MIC90: Streptococcus pneumoniae
[3] = molecular target: CYP3A (Homo sapiens, UniProt P08684); assay: CYP3A time-dependent inhibition in human liver microsomes (midazolam probe); conditions: pooled human liver microsomes, pH 7.4, probe midazolam (30 μM, 1'-hydroxymidazolam formation)
[4] = tested on: S. pyogenes mefA; assay: MIC, microtiter broth dilution, S. pyogenes mefA isolates; type: cell-based, Streptococcus pyogenes; conditions: for MIC50 / MIC90: Streptococcus pyogenes
[5] = tested on: H. influenzae Telithromycin (intermediate); assay: MIC, microtiter broth dilution, telithromycin-intermediate H. influenzae; type: cell-based, Haemophilus influenzae; conditions: for MIC50 / MIC90: Haemophilus influenzae
[6] = tested on: H. influenzae Telithromycin (susceptible); assay: MIC, microtiter broth dilution, telithromycin-susceptible H. influenzae; type: cell-based, Haemophilus influenzae; conditions: for MIC50 / MIC90: Haemophilus influenzae
[7] = tested on: S. pneumoniae ermB; assay: MIC, microtiter broth dilution, S. pneumoniae ermB isolates; type: cell-based, Streptococcus pneumoniae; conditions: for MIC50 / MIC90: Streptococcus pneumoniae
[8] = tested on: M. catarrhalis; assay: MIC, microtiter broth dilution, M. catarrhalis; type: cell-based, Moraxella catarrhalis; conditions: for MIC50 / MIC90: Moraxella catarrhalis
[9] = tested on: L. pneumophila; assay: microbe, parasite or virus in culture; type: cell-based, Legionella pneumophila; conditions: for MIC Range: L. pneumophila, n=10 isolates; for MIC50 / MIC90: Legionella pneumophila
[10] = HLM ER (human liver microsomes extraction ratio); type: in vitro ADME; conditions: 1 μM compound, NADPH, 37° C., <0.32 is lower limit of assay
Description: HLM ER: (human liver microsomes extraction ratio). This assay measures clearance of compound over time in the human liver microsome system due to NADPH-dependent oxidative metabolism. […] Assay Procedure: […] The reaction mixture was pre-incubated at 37° C. for 5 minutes before adding betanicotinamide adenine dinucleotide phosphate—reduced tetrasodium salt (NADPH) (1.0 mM). Aliquots of the incubation mixture were removed at 0, 5, 10, 20, 30 and 45 minutes. The aliquots were quenched in acetonitrile containing internal standard. Samples were centrifuged and the resulting supernatant analyzed by liquid chromatography/mass spectrometry (LC/MS/MS), with a Sciex API4000 using multiple reaction monitoring optimized for each test compound. […] The first order disappearance rate constant was determined for each incubation by plotting natural log(LN) substrate concentration (peak area ratio, drug/internal standard) against incubation time and determining the slope of the regression line (k), using data where an accurate first order decay curve could be obtained. Predicted hepatic clearances (CLH) and extraction ratios were calculated according to the following equations: […] where the following constants were: Liver Weight=21 g/kg [human] Microsomal Protein in Incubation=1.52 mg/mL Liver Protein=45 mg/g [human] Liver Blood Flow (QH)=20 mL/min/kg [human]

[11] = S. pneumoniae emB/mefA, n=45 isolates
[12] = S. pneumoniae mefA, n=39 isolates
[13] = S. pyogenes mefA, n=23 isolates
[14] = H. influenzae telithromycin (intermediate), n=12 isolates
[15] = H. influenzae telithromycin (susceptible), n=82 isolates
[16] = S. pneumoniae ermB, n=34 isolates
[17] = S. pyogenes mefA, n=23 isolates, read-out: MIC50
[18] = S. pyogenes mefA, n=23 isolates, read-out: MIC90
[19] = S. pneumoniae emB/mefA, n=45 isolates, read-out: MIC50
[20] = S. pneumoniae emB/mefA, n=45 isolates, read-out: MIC90
[21] = S. pneumoniae mefA, n=39 isolates, read-out: MIC90
[22] = H. influenzae telithromycin (intermediate), n=12 isolates, read-out: MIC50
[23] = H. influenzae telithromycin (intermediate), n=12 isolates, read-out: MIC90
[24] = H. influenzae telithromycin (susceptible), n=82 isolates, read-out: MIC50
[25] = H. influenzae telithromycin (susceptible), n=82 isolates, read-out: MIC90
[26] = S. pneumoniae ermB, n=34 isolates, read-out: MIC50
[27] = S. pneumoniae ermB, n=34 isolates, read-out: MIC90
[28] = M. catarrhalis, n=30 isolates, read-out: MIC90

Sequence of CYP3A (P08684 2-503): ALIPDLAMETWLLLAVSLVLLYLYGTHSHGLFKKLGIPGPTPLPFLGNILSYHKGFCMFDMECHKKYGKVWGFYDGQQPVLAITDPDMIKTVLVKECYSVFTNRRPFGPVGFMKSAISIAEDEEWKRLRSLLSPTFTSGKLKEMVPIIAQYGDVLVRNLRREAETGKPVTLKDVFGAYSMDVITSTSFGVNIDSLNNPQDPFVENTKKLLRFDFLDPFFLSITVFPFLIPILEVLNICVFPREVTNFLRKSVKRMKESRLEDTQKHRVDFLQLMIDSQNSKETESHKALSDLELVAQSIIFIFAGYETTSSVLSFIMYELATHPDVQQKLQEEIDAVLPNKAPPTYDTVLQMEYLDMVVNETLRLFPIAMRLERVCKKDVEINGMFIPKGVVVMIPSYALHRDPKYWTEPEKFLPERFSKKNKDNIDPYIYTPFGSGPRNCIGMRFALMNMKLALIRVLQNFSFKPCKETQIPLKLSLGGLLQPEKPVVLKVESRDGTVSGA

Compound | MIC Range [1, 11] | MIC Range [2, 12] | MIC50 [2] | MIC Range [4, 13] | MIC Range [5, 14] | MIC Range [6, 15] | MIC Range [7, 16] | MIC Range ([8]; M. catarrhalis, n=30 isolates) | MIC50 [8] | MIC Range [9] | MIC50 [9] | MIC90 [9] | MIC50 [4, 17] | MIC90 [4, 18] | MIC50 [1, 19] | MIC90 [1, 20] | MIC90 [2, 21] | MIC50 [5, 22] | MIC90 [5, 23] | MIC50 [6, 24] | also measured
CC[C@H]1OC(=O)[C@H](C)C(=O)[C@H](C)[C@@H](O[C@@H]2O[C@H](C)C[C@H](N(C)C)[C@H]2O)[C@](C)(OC)C[C@@H](C)C(=O)[C@H](C)[C@H]2N(C3CN(Cc4c(O)cnc5cccnc45)C3)C(=O)O[C@]12C [Example 1, 3-Descladinosyl-11,12-dideoxy-6-O-methyl-3-oxo-12,11-(oxycarbonyl-(1-((3-hydroxy-[1,5]-naphthyridin-4-yl)methyl)-azetidin-3-yl)-imino)-erythromycin A Fumarate] | ≦0.0625-1 μg/mL | ≦0.06-1 μg/mL | 0.125 µg/mL | 0.5 to 1 µg/mL | 4 to 8 µg/mL | 1 to 8 µg/mL | ≦0.0625-2 μg/mL | 0.008 to 0.25 µg/mL | 0.03 µg/mL | 0.008 to 0.03 µg/mL | 0.016 µg/mL | 0.03 µg/mL |  |  |  |  |  |  |  |  | MIC50 [1]: 0.5 µg/mL; MIC90 [1]: 1 µg/mL; MIC90 [2]: 0.5 µg/mL; Ki [3]: 24 µM; kinact [3]: 0.0004 s⁻¹; MIC50 [4]: 0.5 µg/mL; MIC90 [4]: 1 µg/mL; MIC50 [5]: 4 µg/mL; MIC90 [5]: 8 µg/mL; MIC50 [6]: 2 µg/mL; MIC90 [6]: 4 µg/mL; MIC50 [7]: ≤ 0.0625 µg/mL; MIC90 [7]: 1 µg/mL; MIC90 [8]: 0.06 µg/mL; HLM ER [10]: <0.32
CC1(C)S[C@@H]2[C@H](NC(=O)[C@H](N)c3ccc(O)cc3)C(=O)N2[C@H]1C(=O)O [amoxicillin] |  |  |  | 0.004 to 0.03 µg/mL |  |  |  |  |  |  |  |  | 0.008 µg/mL (≈ 0.0219 µM) | 0.016 µg/mL (≈ 0.0438 µM) |  |  |  |  |  |  | 
CC[C@H]1OC(=O)[C@H](C)[C@@H](O[C@H]2C[C@@](C)(OC)[C@@H](O)[C@H](C)O2)[C@H](C)[C@@H](O[C@@H]2O[C@H](C)C[C@H](N(C)C)[C@H]2O)[C@](C)(O)C[C@@H](C)CN(C)[C@H](C)[C@@H](O)[C@]1(C)O [azithromycin] |  |  |  |  |  |  |  |  |  | 0.03 to 0.06 µg/mL | 0.06 µg/mL (≈ 0.0801 µM) | 0.06 µg/mL (≈ 0.0801 µM) |  |  |  |  |  |  |  |  | 
CC[C@H]1OC(=O)[C@H](C)[C@@H](O[C@H]2C[C@@](C)(OC)[C@@H](O)[C@H](C)O2)[C@H](C)[C@@H](O[C@@H]2O[C@H](C)C[C@H](N(C)C)[C@H]2O)[C@](C)(O)C[C@@H](C)C(=O)[C@H](C)[C@@H](O)[C@]1(C)O [erythromycin] |  | 2 to 16 µg/mL |  | 8 to 32 µg/mL | 8 to 16 µg/mL | 1 to 16 µg/mL |  | 0.03 to 1 µg/mL |  |  |  |  | 8 µg/mL (≈ 10.9 µM) | 16 µg/mL (≈ 21.8 µM) | > 64 µg/mL | > 64 µg/mL | 16 µg/mL (≈ 21.8 µM) | 16 µg/mL (≈ 21.8 µM) | 16 µg/mL (≈ 21.8 µM) | 8 µg/mL (≈ 10.9 µM) | MIC50 ([2]; S. pneumoniae mefA, n=39 isolates, read-out: MIC50): 8 µg/mL (≈ 10.9 µM); MIC90 [6, 25]: 16 µg/mL (≈ 21.8 µM); MIC50 [7, 26]: > 64 µg/mL; MIC90 [7, 27]: > 64 µg/mL; MIC50 ([8]; M. catarrhalis, n=30 isolates, read-out: MIC50): 0.25 µg/mL (≈ 0.341 µM); MIC90 [8, 28]: 0.25 µg/mL (≈ 0.341 µM)
CC[C@H]1OC(=O)[C@H](C)C(=O)[C@H](C)[C@@H](O[C@@H]2O[C@H](C)C[C@H](N(C)C)[C@H]2O)[C@](C)(OC)C[C@@H](C)C(=O)[C@H](C)[C@H]2N(CCCCn3cnc(-c4cccnc4)c3)C(=O)O[C@]12C [telithromycin] | ≦0.0625-1 μg/mL | ≦0.06-0.5 μg/mL | 0.125 µg/mL (≈ 0.154 µM) | 0.25 to 2 µg/mL | 8 µg/mL (≈ 9.85 µM) | 0.25 to 4 µg/mL | ≦0.0625-1 μg/mL | 0.006 to 0.5 µg/mL | 0.125 µg/mL (≈ 0.154 µM) | 0.016 to 0.03 µg/mL | 0.016 µg/mL (≈ 0.0197 µM) | 0.016 µg/mL (≈ 0.0197 µM) | 0.5 µg/mL (≈ 0.616 µM) | 0.5 µg/mL (≈ 0.616 µM) | 0.5 µg/mL (≈ 0.616 µM) | 0.5 µg/mL (≈ 0.616 µM) | 0.5 µg/mL (≈ 0.616 µM) | 8 µg/mL (≈ 9.85 µM) | 8 µg/mL (≈ 9.85 µM) | 1 µg/mL (≈ 1.23 µM) | MIC90 [6, 25]: 4 µg/mL (≈ 4.93 µM); MIC50 [7, 26]: ≤ 0.0625 µg/mL; MIC90 [7, 27]: 0.5 µg/mL (≈ 0.616 µM); MIC90 [8, 28]: 0.25 µg/mL (≈ 0.308 µM)
